PubChem BioAssay (NCI)
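Assay format: 96-well plates, 48-hour exposure. GI50: concentration for 50% inhibition of growth. TGI denotes the concentration required for complete inhibition of growth.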

What was measured:
Test in all cases: DTP human tumour cell line panel, 48 h
[1] = system: LOX IMVI melanoma
[2] = system: CAKI-1 renal
[3] = system: EKVX NSCLC
[4] = system: SK-OV-3 ovarian
[5] = system: HCC-2998 colon
[6] = system: M14 melanoma
[7] = system: HCT-116 colon
[8] = system: SNB-19 CNS
[9] = system: OVCAR-5 ovarian
[10] = system: DU-145 prostate

Row | SMILES | TGI [1] | TGI [2] | TGI [3] | TGI [4] | TGI [5] | TGI [6] | TGI [7] | TGI [8] | TGI [9] | GI50 [1] | GI50 [7] | GI50 [2] | GI50 [3] | GI50 [4] | GI50 [8] | GI50 [5] | GI50 [6] | GI50 [9] | GI50 [10] | TGI [10]
1 | O=C1C2CC=CCC2C(=O)C12CCc1ccccc12 (stereo not drawn) | > 100 µM | > 100 µM | > 100 µM | > 100 µM | > 100 µM | > 100 µM |  |  |  |  |  |  |  |  |  |  |  |  |  | 
2 | COc1cc2cc3c4c(cc(OC)c(OC)c4c2cc1OC)CCN3C(=O)N(C)C | > 100 µM | > 100 µM | > 100 µM | > 100 µM | > 100 µM | > 10 µM | > 100 µM | > 100 µM | > 100 µM |  |  |  |  |  |  |  |  |  |  | 
3 | C/C(CC(=O)Nc1ccc(Cl)cc1)=N\NC(=O)C[n+]1ccccc1 | > 100 µM |  | > 100 µM | > 100 µM | > 100 µM | > 100 µM | > 100 µM |  | > 100 µM |  |  |  |  |  |  |  |  |  |  | 
4 | Cc1ccc(C(=O)N2c3ccccc3N(C)n3cccc3C2CC(=O)O)cc1 (stereo not drawn) | > 100 µM | > 100 µM | > 100 µM |  | > 100 µM | > 100 µM |  | > 100 µM | > 100 µM |  |  |  |  |  |  |  |  |  |  | 
5 | CC(C)(c1ccc(Oc2ccc(C#N)c(C#N)c2)cc1)c1ccc(Oc2ccc(C#N)c(C#N)c2)cc1 | > 100 µM | > 100 µM | > 100 µM | > 100 µM | > 100 µM | > 100 µM | > 100 µM | > 100 µM | > 100 µM | > 100 µM | > 100 µM | > 100 µM | > 100 µM | > 100 µM | > 100 µM | > 100 µM | > 100 µM | > 100 µM |  | 
6 | COC1=C2C[C@H](O)C(C)C[C@@]2(OC)OC1=O (stereo partly drawn) | > 100 µM | > 100 µM |  | > 100 µM | > 100 µM | > 100 µM | > 100 µM | > 100 µM |  |  |  |  |  |  |  |  |  |  |  | 
7 | CC1(C)CCC[C@]2(C)c3cc(O)ccc3CC[C@@H]12 | 33.7 µM | 35.9 µM | 36.7 µM |  |  | > 100 µM | > 100 µM | 33.9 µM | 27.9 µM | 16.9 µM | 42.2 µM | 19.5 µM | 21.5 µM |  | 17 µM |  | 28.2 µM | 14 µM | 16.4 µM | 30.6 µM
8 | CC(C)(O)[C@@H]1CC[C@@]2(C)CCC[C@H](O)[C@H]2C1 | > 100 µM | > 100 µM |  | > 100 µM | > 100 µM | > 100 µM | > 100 µM | > 100 µM | > 100 µM |  |  |  |  |  |  |  |  |  |  | 
9 | O=[P+](O)c1cc2ccccc2c2ccccc12 | > 100 µM |  | > 100 µM | > 100 µM | > 100 µM | > 100 µM | > 100 µM | > 100 µM |  |  |  |  |  |  |  |  |  |  |  | 
10 | CSc1nc(SC)c2c(C(N)=S)[nH]nc2n1 | 62.7 µM | 56.5 µM | 56 µM | 70.5 µM |  | > 100 µM |  | 90 µM |  |  |  |  |  |  |  |  |  |  |  | 
11 | COC(=O)[C@@]1(O)CC(C)C=C1C=O (stereo partly drawn) | > 100 µM | > 100 µM | > 100 µM | > 100 µM | > 100 µM | > 100 µM | 38.4 µM | > 100 µM | > 100 µM |  |  |  |  |  |  |  |  |  |  | 
12 | C[C@]1(C(=O)O)N[C@H](C(=O)O)CS1 | > 1000 µM | > 1000 µM |  | > 1000 µM | > 1000 µM | > 1000 µM | > 1000 µM | > 1000 µM | > 1000 µM | > 1000 µM | > 1000 µM | 843 µM |  | > 1000 µM | > 1000 µM | 921 µM | > 1000 µM | > 1000 µM |  | 
13 | COc1ccc(-c2nnc(-c3c(C)n(C)n(-c4ccccc4)c3=O)o2)cc1 | > 100 µM |  | > 100 µM | > 100 µM | > 100 µM | > 100 µM | > 100 µM | > 100 µM |  |  |  |  |  |  |  |  |  |  |  | 
14 | COc1ccc([I+]c2ccccc2)cc1 | > 100 µM | > 100 µM |  | > 100 µM | > 100 µM | > 100 µM | > 100 µM | > 100 µM | > 100 µM | 3.47 µM | 0.735 µM | 12.5 µM |  | 50.2 µM | 11.3 µM | 10 µM | 9.09 µM | > 100 µM | 23 µM | > 100 µM
15 | CCCCCCCC(=O)OCC1OC(n2cc(F)c(=O)[nH]c2=O)C(NC(=O)OCc2ccccc2)C(O)C1O (stereo not drawn) | > 100 µM | > 100 µM | > 100 µM | > 100 µM | 52.2 µM | > 100 µM | > 100 µM | > 100 µM |  |  |  |  |  |  |  |  |  |  |  | 
16 | COc1cc([C@H]2c3cc4c(cc3[C@H](NCc3ccc([N+](=O)[O-])cc3)C3COC(=O)[C@H]32)OCO4)cc(OC)c1O (stereo partly drawn) | 9.81 µM | 4.58 µM | > 23.6 µM | > 24.6 µM | 3.98 µM | 10.4 µM | > 86.1 µM | 21.4 µM | > 26 µM |  |  |  |  |  |  |  |  |  |  | 
17 | CCC(=O)C(C)C(=O)C(=O)C(=O)OC (stereo not drawn) | > 100 µM | > 100 µM | > 100 µM | > 100 µM | > 100 µM | > 100 µM | > 100 µM | > 100 µM | > 100 µM |  |  |  |  |  |  |  |  |  |  | 
18 | O=C1[C@H]2ON(c3ccccc3)C(c3ccccc3F)[C@H]2C(=O)N1c1ccc(Cc2ccc(N3C(=O)[C@@H]4ON(c5ccccc5)C(c5ccccc5F)[C@@H]4C3=O)cc2)cc1 (stereo partly drawn) | > 100 µM | > 100 µM |  | > 100 µM | > 100 µM | > 100 µM |  |  | > 100 µM |  |  |  |  |  |  |  |  |  |  | 
19 | COc1cc(C=O)c(-c2cc3c(cc2C2(C)OCCS2)OCO3)c(OC)c1OC (stereo not drawn) | 37.7 µM | 71.4 µM | > 97 µM | > 239 µM | 31.2 µM | 16.1 µM | 28.2 µM | 168 µM | 129 µM |  |  |  |  |  |  |  |  |  |  | 
20 | CN(C(=O)C12C3(C(=O)C(C)(C)C)C4C5(C#N)C3C1(C(=O)C(C)(C)C)C5C42C(=O)C(C)(C)C)C(C)(C)C (stereo not drawn) |  | > 50 µM | > 50 µM | > 50 µM | > 50 µM | > 50 µM | > 50 µM | > 50 µM | > 50 µM |  |  |  |  |  |  |  |  |  |  | 
21 | O=C(O)C(C(=O)C(=O)C(C(=O)O)c1ccc(Cl)cc1)c1ccc(Cl)cc1 (stereo not drawn) | 8.79 µM | 13.6 µM | 13.3 µM | 18.2 µM | 14.1 µM | 16.4 µM | 12.1 µM | 14.3 µM | 13.6 µM |  |  |  |  |  |  |  |  |  |  | 
22 | CCCCN=C(NC#N)N(Cc1ccccc1)Cc1ccccc1 | 29.7 µM | 66.4 µM | 74.9 µM | 87.6 µM | 62.1 µM | 53.3 µM | 39.5 µM | > 100 µM | 87.5 µM |  |  |  |  |  |  |  |  |  |  | 
